Measurements published in patent US6376670B1, “Quinoline-indole antimicrobial agents, uses and compositions related thereto” (Sepracor Inc., priority 1997, dated 2002).

Key:
Assay in all cases: Determination of MIC values (BHI broth, 96 well microtiter plate)
Format in all cases: cell-based
Streptococcus pneumoniae = details: S. pneu, BHI broth, overnight 37° C.; for MIC: Streptococcus pneumoniae, read-out: MIC S. pneu
Summary of the method: (§1)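 Broth microdilution in Brain-Heart Infusion with twofold dilution series from 25 µg/mL final and a no-compound control. Overnight incubation at 37° C in a CO2 atmosphere; visual growth endpoint gives the MIC.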

[1] = tested on: methicillin-resistant Staphylococcus aureus (MRSA); details: MRSA, BHI broth, overnight 37° C.; for MIC: Staphylococcus aureus, read-out: MIC MRSA
Summary of the method: as §1

[2] = tested on: vancomycin-resistant Enterococcus spp. (VRE); details: VREF, BHI broth, overnight 37° C.; for MIC: Enterococcus, VRE, read-out: MIC VREF
Summary of the method: as §1

Compound | MIC (Streptococcus pneumoniae) | MIC [1] | MIC [2] | MIC S. pneu (Streptococcus pneumoniae) | MIC MRSA [1] | MIC VREF [2]
NCc1ccc(CNC(=O)c2cc(-c3c[nH]c4c(Cl)cccc34)nc3ccccc23)cc1 [Example 260] | < 25 µg/mL | < 25 µg/mL | < 25 µg/mL | – | – | –
NCc1ccc(CNC(=O)c2cc(-c3c[nH]c4ccc(Br)cc34)nc3cc(C#CCN4CCCCC4)ccc23)cc1 [Example 262] | < 7 µg/mL | < 7 µg/mL | < 7 µg/mL | – | – | –
NCc1ccc(CNC(=O)c2cc(-c3c[nH]c4ccc(Br)cc34)nc3cc(C#CCN4CCSCC4)ccc23)cc1 [Example 270] | > 25 µg/mL | < 25 µg/mL | < 25 µg/mL | – | – | –
NCc1ccc(CNC(=O)c2cc(-c3c[nH]c4ccc(Br)cc34)nc3c(C#CCN4CCSCC4)cccc23)cc1 [Example 271] | < 7 µg/mL | < 7 µg/mL | < 25 µg/mL | – | – | –
NCc1ccc(CNC(=O)c2cc(-c3c[nH]c4ccc(Br)cc34)nc3cc(Cl)c(C#CCNCCc4ccc(Cl)cc4)cc23)cc1 [Example 274] | < 7 µg/mL | < 25 µg/mL | > 25 µg/mL | – | – | –
NCc1ccc(CNC(=O)c2cc(-c3c[nH]c4ccc(Br)cc34)nc3c(Cl)c(Cl)ccc23)cc1 [Example 275] | < 25 µg/mL | < 7 µg/mL | < 7 µg/mL | – | – | –
NCc1cccc(CNC(=O)c2cc(-c3c[nH]c4ccc(Br)cc34)nc3c(Cl)c(Cl)ccc23)c1 [Example 276] | > 25 µg/mL | < 7 µg/mL | < 7 µg/mL | – | – | –
NCC1CCC(CNC(=O)c2cc(-c3c[nH]c4ccc(Br)cc34)nc3c(Cl)c(Cl)ccc23)CC1 (stereo not drawn) [Example 277] | < 7 µg/mL | < 7 µg/mL | < 7 µg/mL | – | – | –
NCC1CCCC(CNC(=O)c2cc(-c3c[nH]c4ccc(Br)cc34)nc3c(Cl)c(Cl)ccc23)C1 (stereo not drawn) [Example 278] | < 7 µg/mL | < 7 µg/mL | < 7 µg/mL | – | – | –
NC1CCCCC1NC(=O)c1cc(-c2c[nH]c3ccc(Br)cc23)nc2c(Cl)c(Cl)ccc12 (stereo not drawn) [Example 280] | < 7 µg/mL | < 7 µg/mL | < 7 µg/mL | – | – | –
NCc1ccc(CNC(=O)c2cc(-c3c[nH]c4ccc(Br)cc34)nc3cc(Cl)c(C#CCN4CCc5ccccc5C4)cc23)cc1 [Example 281] | > 25 µg/mL | < 25 µg/mL | > 25 µg/mL | – | – | –
NCc1ccc(CNC(=O)c2cc(-c3c[nH]c4ccc(Br)cc34)nc3cc(Cl)c(C#CCN4CC=CCC4)cc23)cc1 [Example 282] | < 7 µg/mL | < 7 µg/mL | < 7 µg/mL | – | – | –
Clc1ccc2nc(-c3c[nH]c4ccc(Cl)cc34)ccc2c1 [Example 287] | < 7 µg/mL | < 7 µg/mL | > 25 µg/mL | – | – | –
Fc1ccc2c(-c3ccc4cc(Cl)ccc4n3)c[nH]c2c1 [Example 288] | < 7 µg/mL | < 7 µg/mL | < 7 µg/mL | – | – | –
Clc1ccc2nc(-c3c[nH]c4ccc(OCc5ccccc5)cc34)ccc2c1 [Example 289] | < 7 µg/mL | < 7 µg/mL | > 25 µg/mL | – | – | –
NCCNC(=O)c1cc(-c2c[nH]c3ccc(Br)cc23)nc2cc(Cl)c(I)cc12 [Example 294] | < 7 µg/mL | < 7 µg/mL | < 7 µg/mL | – | – | –
NCCNC(=O)c1cc(-c2c[nH]c3ccc(Br)cc23)nc2cc(Cl)cc(Cl)c12 [Example 295] | < 7 µg/mL | < 7 µg/mL | < 7 µg/mL | – | – | –

Compound | MIC (Streptococcus pneumoniae) | MIC [1] | MIC [2] | MIC S. pneu (Streptococcus pneumoniae) | MIC MRSA [1] | MIC VREF [2]
O=C(O)c1cc(-c2c[nH]c3ccc(Br)cc23)nc2cc(F)cc(Cl)c12 [Example 297] | < 25 µg/mL | < 25 µg/mL | < 25 µg/mL | – | – | –
NCC1CCCC(CNC(=O)c2cc(-c3c[nH]c4ccc(Br)cc34)nc3cc(F)ccc23)C1 (stereo not drawn) [Example 298] | < 7 µg/mL | – | – | – | < 7 µg/mL | <7 µg/mL
NCc1ccc(CNC(=O)c2cc(-c3c[nH]c4ccc(Br)cc34)nc3cc(C#CCNCCc4ccc(Cl)cc4)ccc23)cc1 [Example 300] | < 25 µg/mL | < 7 µg/mL | < 7 µg/mL | – | – | –
NCc1ccc(CNC(=O)c2cc(-c3c[nH]c4ccc(Br)cc34)nc3cc(C#CCN4CC=CCC4)ccc23)cc1 [Example 304] | < 7 µg/mL | < 7 µg/mL | < 7 µg/mL | – | – | –
NCc1ccc(CNC(=O)c2cc(-c3c[nH]c4ccc(Br)cc34)nc3c(C#CCN4CC=CCC4)cccc23)cc1 [Example 305] | < 7 µg/mL | < 7 µg/mL | < 7 µg/mL | – | – | –
NCc1ccc(CNC(=O)c2cc(-c3c[nH]c4ccc(Br)cc34)c3ccccc3n2)cc1 [Example 306] | < 7 µg/mL | < 7 µg/mL | < 7 µg/mL | – | – | –
COC(=O)c1cc(-c2cn(C)c3ccc(Br)cc23)nc2cc(F)ccc12 [Example 309] | > 25 µg/mL | > 25 µg/mL | > 25 µg/mL | – | – | –
NCc1cccc(CNC(=O)c2cc(-c3cc4cc(Cl)ccc4[nH]3)nc3cc(I)ccc23)c1 [Example 311] | > 25 µg/mL | > 25 µg/mL | > 25 µg/mL | – | – | –
NCCNC(=O)c1cc(-c2c[nH]c3ccc(Br)cc23)nc2c(Cl)cc(I)cc12 [Example 314] | < 7 µg/mL | < 7 µg/mL | < 7 µg/mL | – | – | –
NCCNC(=O)c1cc(-c2c[nH]c3ccc(Br)cc23)nc2c(Br)cccc12 [Example 315] | < 7 µg/mL | < 7 µg/mL | < 7 µg/mL | – | – | –
NCCNC(=O)c1cc(-c2c[nH]c3ccc(Br)cc23)nc2c(Cl)cccc12 [Example 318] | < 7 µg/mL | < 7 µg/mL | < 7 µg/mL | – | – | –
NCCNC(=O)c1cc(-c2c[nH]c3ccc(Br)cc23)nc2cc(F)ccc12 [Example 321] | < 7 µg/mL | < 7 µg/mL | < 7 µg/mL | – | – | –
NCCNC(=O)c1cc(-c2c[nH]c3ccc(Cl)cc23)nc2c(Br)cccc12 [Example 322] | < 7 µg/mL | < 7 µg/mL | < 7 µg/mL | – | – | –
Cn1cc(-c2cc(C(=O)NCCN)c3ccc(F)cc3n2)c2cc(Br)ccc21 [Example 325] | < 7 µg/mL | < 7 µg/mL | < 7 µg/mL | – | – | –
Cn1cc(-c2cc(C(=O)NCc3cccc(CN)c3)c3ccc(F)cc3n2)c2cc(Br)ccc21 [Example 327] | < 7 µg/mL | < 25 µg/mL | > 25 µg/mL | – | – | –
Cn1cc(-c2cc(C(=O)NCC3CCC(CN)CC3)c3ccc(I)cc3n2)c2cc(Br)ccc21 (stereo not drawn) [Example 331] | < 7 µg/mL | < 7 µg/mL | < 7 µg/mL | – | – | –

Next, values leading:

MIC (Streptococcus pneumoniae) | MIC [1] | MIC [2] | MIC S. pneu (Streptococcus pneumoniae) | MIC MRSA [1] | MIC VREF [2] | Compound
< 25 µg/mL | < 25 µg/mL | < 25 µg/mL | – | – | – | NCc1ccc(CNC(=O)c2cc(-c3c[nH]c4c(Br)cccc34)nc3ccccc23)cc1 [Example 261]
< 7 µg/mL | < 25 µg/mL | < 25 µg/mL | – | – | – | NCc1ccc(CNC(=O)c2cc(-c3c[nH]c4ccc(Br)cc34)nc3c(C#CCN4CCCCC4)cccc23)cc1 [Example 263]
< 7 µg/mL | < 7 µg/mL | > 25 µg/mL | – | – | – | COc1ccc(NC(=O)CCc2cc(-c3c[nH]c4ccc(Br)cc34)nc3ccc(C#CCN4CCCCC4)cc23)cc1 [Example 266]
< 7 µg/mL | < 7 µg/mL | < 7 µg/mL | – | – | – | NCc1ccc(CNC(=O)c2cc(-c3c[nH]c4ccc(Br)cc34)nc3cc(Cl)c(C#CCN4CCSCC4)cc23)cc1 [Example 272]
< 7 µg/mL | < 7 µg/mL | < 7 µg/mL | – | – | – | NCCNC(=O)c1cc(-c2c[nH]c3ccc(Br)cc23)nc2c(Cl)c(Cl)ccc12 [Example 279]
< 7 µg/mL | < 7 µg/mL | < 7 µg/mL | – | – | – | NCc1ccc(CNC(=O)c2cc(-c3c[nH]c4ccc(Br)cc34)nc3ccccc23)cc1 [Example 283]
< 7 µg/mL | < 7 µg/mL | < 7 µg/mL | – | – | – | NCCNC(=O)c1cc(-c2c[nH]c3ccc(Br)cc23)nc2ccc(Br)cc12 [Example 285]
> 25 µg/mL | > 25 µg/mL | > 25 µg/mL | – | – | – | COc1ccc2[nH]cc(-c3ccc4cc(Cl)ccc4n3)c2c1 [Example 290]
> 25 µg/mL | > 25 µg/mL | > 25 µg/mL | – | – | – | Cc1cccc2c(-c3ccc4cc(Cl)ccc4n3)c[nH]c12 [Example 291]
– | – | – | > 25 µg/mL | > 25 µg/mL | >25 µg/mL | N#Cc1ccc2[nH]cc(-c3ccc4cc(Cl)ccc4n3)c2c1 [Example 292]
< 25 µg/mL | < 7 µg/mL | < 25 µg/mL | – | – | – | NCc1ccc(CNC(=O)c2cc(-c3c[nH]c4ccc(Br)cc34)nc3c(C#CCNCCc4ccc(Cl)cc4)cccc23)cc1 [Example 301]
< 7 µg/mL | < 7 µg/mL | > 25 µg/mL | – | – | – | Brc1ccc2[nH]cc(-c3nc4ccc(I)cc4c4c3CCO4)c2c1 [Example 303]
< 25 µg/mL | < 25 µg/mL | > 25 µg/mL | – | – | – | Cn1cc(-c2cc(C(=O)O)c3ccc(F)cc3n2)c2cc(Br)ccc21 [Example 310]
< 7 µg/mL | < 7 µg/mL | < 7 µg/mL | – | – | – | NCCNC(=O)c1cc(-c2c[nH]c3ccc(Cl)cc23)nc2cc(Br)ccc12 [Example 312]
< 7 µg/mL | < 7 µg/mL | < 7 µg/mL | – | – | – | NCCNC(=O)c1cc(-c2c[nH]c3ccc(Cl)cc23)nc2ccc(Br)cc12 [Example 313]
< 7 µg/mL | < 7 µg/mL | < 25 µg/mL | – | – | – | NCCNC(=O)c1cc(-c2c[nH]c3ccc(Br)cc23)nc2c(F)cccc12 [Example 319]
< 7 µg/mL | < 7 µg/mL | < 7 µg/mL | – | – | – | Cn1cc(-c2cc(C(=O)NCC3CCC(CN)CC3)c3ccc(F)cc3n2)c2cc(Br)ccc21 (stereo not drawn) [Example 326]
< 7 µg/mL | > 25 µg/mL | > 25 µg/mL | – | – | – | Cn1cc(-c2cc(C(=O)NCc3ccc(CN)cc3)c3ccc(I)cc3n2)c2cc(Br)ccc21 [Example 328]
< 7 µg/mL | < 7 µg/mL | < 7 µg/mL | – | – | – | Cn1cc(-c2cc(C(=O)NCc3cccc(CN)c3)c3ccc(I)cc3n2)c2cc(Br)ccc21 [Example 330]
< 7 µg/mL | < 7 µg/mL | < 7 µg/mL | – | – | – | Cn1cc(-c2cc(C(=O)NCC3CCCC(CN)C3)c3ccc(I)cc3n2)c2cc(Br)ccc21 (stereo not drawn) [Example 332]
